# Assays:
# Setaria viridis [1] = test: Herbicidal pre-emergence action (Experimental Part 2, D); format: in vivo; conditions: pre-emergence (Part 2), scored visually after about 3 weeks
# Description: (§1) Seeds of mono- and dicotyledonous weed plants were placed in plastic pots in sandy loam soil (doubly sown with in each case one species of mono- or dicotyledonous weed plants per pot) and covered with soil. The compounds of the invention, formulated in the form of wettable powders (WP) or as emulsion concentrates (EC), were then applied onto the surface of the covering soil as aqueous suspension or emulsion with addition of 0.5% additive at a water application rate of 600 liters per hectare (converted). After the treatment, the pots are placed in a greenhouse and kept under good growth conditions for the trial plants. After about 3 weeks, the effect of the preparations was scored visually in comparison with untreated controls as percentages. For example, 100% activity=the plants have died, 0% activity=like control plants. Tables D1 to D8 below show the effects of selected compounds of the general formula (I) according to Tables I.1 to I.116 on various harmful plants and an application rate corresponding to 1280 g/ha or 320 g/ha, which were obtained by the experimental procedure mentioned above.
# Matricaria inodora [2] = test: as above; format: in vivo; conditions: pre-emergence (Part 2), scored visually after about 3 weeks
# Description: as §1
# Lolium rigidum = test: as above; format: in vivo; conditions: pre-emergence (Part 2), scored visually after about 3 weeks
# Description: as §1
# Stellaria media [3] = test: as above; format: in vivo; conditions: pre-emergence (Part 2), scored visually after about 3 weeks
# Description: as §1
# Poa annua [4] = test: as above; format: in vivo; conditions: pre-emergence (Part 2), scored visually after about 3 weeks
# Description: as §1
# Setaria viridis [5] = test: Herbicidal post-emergence action (Experimental Part 2, C); format: in vivo; conditions: post-emergence (Part 2), rated visually after about 3 weeks
# Description: (§2) Seeds of mono- and dicotyledonous weed plants were placed in plastic pots in sandy loam soil (doubly sown with in each case one species of mono- or dicotyledonous weed plants per pot), covered with soil and cultivated in a greenhouse under controlled growth conditions. 2 to 3 weeks after sowing, the test plants were treated at the one-leaf stage. The compounds of the invention, formulated in the form of wettable powders (WP) or as emulsion concentrates (EC), were applied onto the green parts of the plants as aqueous suspension or emulsion with addition of 0.5% additive at a water application rate of 600 liters per hectare (converted). After the test plants had been kept in the greenhouse under optimum growth conditions for about 3 weeks, the activity of the preparations was rated visually in comparison to untreated controls. For example, 100% activity=the plants have died, 0% activity=like control plants. Tables C1 to C8 below show the effects of selected compounds of the general formula (I) according to Tables I.1 to I.116 on various harmful plants and an application rate corresponding to 1280 g/ha or 320 g/ha, which were obtained by the experimental procedure mentioned above.
# Abutilon theophrasti [6] = test: as above; format: in vivo; conditions: post-emergence (Part 2), rated visually after about 3 weeks
# Description: as §2
# Matricaria inodora [7] = test: as above; format: in vivo; conditions: post-emergence (Part 2), rated visually after about 3 weeks
# Description: as §2
# Stellaria media [8] = test: as above; format: in vivo; conditions: post-emergence (Part 2), rated visually after about 3 weeks
# Description: as §2
# Poa annua [9] = test: as above; format: in vivo; conditions: post-emergence (Part 2), rated visually after about 3 weeks
# Description: as §2
# Amaranthus retroflexus [10] = test: Herbicidal pre-emergence action (Experimental Part 2, D); format: in vivo; conditions: pre-emergence (Part 2), scored visually after about 3 weeks
# Description: as §1
# Abutilon theophrasti [11] = test: as above; format: in vivo; conditions: pre-emergence (Part 2), application rate 320 g/ha, scored visually after about 3 weeks
# Description: as §1
# photosystem II (PS II) = target: T1, photosystem II (PS II) (Spinacia oleracea, UniProt P69560); test: Measurement of the PS II activity in thylakoid membranes (DCPIP reduction, Experimental Part 3, Table E1); format: biochemical; conditions: spinach thylakoid membranes
# T1 construct: the chloroplasts were osmotically ruptured and the thylakoid membranes were then obtained by centrifugation; from tissue; host or cells: thylakoid membranes from fresh spinach leaves
# Description: Cooled fresh spinach leaves were comminuted and homogenized in 50 mM phosphate buffer, pH 6.8. 10 mM KCl, 0.34 M sucrose (sucrose buffer) (blender, 1 g of plant material/ml). The homogenate was subsequently filtered through 4 layers of Miracloth and the chloroplasts were isolated by centrifugation, i.e. 10 min of centrifugation at 4400×g (4° C.). The sediment was suspended in 25 ml of sucrose buffer and re-centrifuged for 10 min at 4400×g (4° C.). The sediment was then suspended in 40 ml of 50 mM phosphate buffer, pH 6.8, 10 mM KCl, without sucrose. In this step, the chloroplasts were osmotically ruptured and the thylakoid membranes were then obtained by centrifugation (10 min, 4400×g, 4° C.). The membrane sediment was finally suspended in about 20 ml of 50 mM phosphate buffer, pH 6.8, 10 mM KCl. Following protein determination and activity determination, the membrane suspension was divided into aliquots and frozen in liquid nitrogen. The aliquots were stored at −80° C. Under these conditions, the photosystem II preparation was storage stable for at least three months. The activity determination of photosystem II (PS II) was then carried out using the following test principle: The electron transfer from PS II to an artificial electron acceptor, 2,6-dichlorophenolindophenol (DCPIP), was measured with exposure to light. The concentration of the blue oxidized form of DCPIP was determined spectrophotometrically at wavelength λ=595 nm. […] The activity determination was carried out in microtiter plates (96 cavities) in a reaction volume of 200 μl. Here, 155 μl of dilute membrane suspension were initially charged in 50 mM of phosphate buffer, pH 6.8, 10 mM KCl. Depending on the activity of the PS II preparation, the dilution was adjusted such that the measurement of the decrease in absorption (λ=595 nm) was linear for at least 10 min. In each case 5 μl solution of the test compounds of a concentration of 100 μM in DMSO were added to the enzyme suspension; controls contained 5 μl DMSO; the final concentration of DMSO in the reaction batch was thus 2.5% (v/v); this concentration had no adverse effect on the enzymatic activity. On each microtiter plate, a known PS II inhibitor, for example metribuzin, was used as standard, which allowed the quality of the PS II test to be assessed. The reaction was started by addition of 40 μl DCPIP solution (600 μM in distilled water); the final concentration of DCPIP was 120 μM. Measurement of absorption was carried out over a period of 10 min at 22° C. and with exposure to light. Using metribuzin as comparative substance, the results for the efficacy of the compounds of the general formula (I) at 100 μM are stated in the table below using the following classification: ++++ (inhibition≥90%), +++ (90%>inhibition≥70%), ++ (70%>inhibition≥50%), + (50%>inhibition≥30%).
# Effects of selected compounds of the general formula (I) according to the following table E1: […]
# Amaranthus retroflexus [12] = test: Herbicidal post-emergence action (Experimental Part 2, C); format: in vivo; conditions: post-emergence (Part 2), rated visually after about 3 weeks
# Description: as §2
# Echinochloa crus-galli [13] = test: as above; format: in vivo; conditions: post-emergence (Part 2), application rate 1280 g/ha, rated visually after about 3 weeks
# Description: as §2
# Echinochloa crus-galli [14] = test: Herbicidal pre-emergence action (Experimental Part 2, D); format: in vivo; conditions: pre-emergence (Part 2), scored visually after about 3 weeks
# Description: as §1
Effect (inhibition of PS II activity) (photosystem II (PS II)),Structure (SMILES),"Setaria viridis, herbicidal activity (Setaria viridis [1]; application rate 320 g/ha)","Matricaria inodora, herbicidal activity (Matricaria inodora [2]; application rate 1280 g/ha)","Lolium rigidum, herbicidal activity (Lolium rigidum; application rate 1280 g/ha)","Stellaria media, herbicidal activity (Stellaria media [3]; application rate 1280 g/ha)","Poa Annua, herbicidal activity (Poa annua [4]; application rate 320 g/ha)","Setaria viridis, herbicidal activity (Setaria viridis [5]; application rate 1280 g/ha)","Abutilon theophrasti, herbicidal activity (Abutilon theophrasti [6]; application rate 320 g/ha)","Stellaria media, herbicidal activity (Stellaria media [8]; application rate 1280 g/ha)","Poa Annua, herbicidal activity (Poa annua [9]; application rate 1280 g/ha)","Abutilon theophrasti, herbicidal activity (Abutilon theophrasti [11])","Stellaria media, herbicidal activity (Stellaria media [3]; application rate 320 g/ha)","Poa Annua, herbicidal activity (Poa annua [4]; application rate 1280 g/ha)","Amaranthus retroflexus, herbicidal activity (Amaranthus retroflexus [12]; application rate 320 g/ha)","Abutilon theophrasti, herbicidal activity (Abutilon theophrasti [6]; application rate 1280 g/ha)","Amaranthus retroflexus, herbicidal activity (Amaranthus retroflexus [10]; application rate 1280 g/ha)","Setaria viridis, herbicidal activity (Setaria viridis [1]; application rate 1280 g/ha)","Matricaria inodora, herbicidal activity (Matricaria inodora [7]; application rate 320 g/ha)","Stellaria media, herbicidal activity (Stellaria media [8]; application rate 320 g/ha)","Echinochloa crus-galli, herbicidal activity (Echinochloa crus-galli [13])",other results
++++ (inhibition≥90%),CC1=CC(O)N(c2onc(C(C)(C)C)c2C)C1=O (centres unmarked) [I.2-300],90%,90%,–,–,–,90%,–,100%,–,90%,90%,90%,100%,100%,–,–,–,–,–,"Amaranthus retroflexus, herbicidal activity (Amaranthus retroflexus [10]; application rate 320 g/ha): 100%"
++++ (inhibition≥90%),"CC1=CC(=O)N(c2cc(C(F)(F)F)c(Cl)cn2)C1O (centres unmarked) [I.1-451, 5-Hydroxy-4-methyl-1-(5-chloro-4-trifluoromethylpyridin-2-yl)-1,5-dihydro-2H-pyrrol-2-one]",–,100%,–,–,–,–,100%,–,–,–,100%,90%,–,–,90%,100%,90%,100%,100%,"Amaranthus retroflexus, herbicidal activity (Amaranthus retroflexus [12]; application rate 1280 g/ha): 100%; Poa Annua, herbicidal activity (Poa annua [9]; application rate 320 g/ha): 100%"

# Second part, the compound before the results:
Structure (SMILES),Effect (inhibition of PS II activity) (photosystem II (PS II)),"Setaria viridis, herbicidal activity (Setaria viridis [1]; application rate 320 g/ha)","Matricaria inodora, herbicidal activity (Matricaria inodora [2]; application rate 1280 g/ha)","Lolium rigidum, herbicidal activity (Lolium rigidum; application rate 1280 g/ha)","Stellaria media, herbicidal activity (Stellaria media [3]; application rate 1280 g/ha)","Poa Annua, herbicidal activity (Poa annua [4]; application rate 320 g/ha)","Setaria viridis, herbicidal activity (Setaria viridis [5]; application rate 1280 g/ha)","Abutilon theophrasti, herbicidal activity (Abutilon theophrasti [6]; application rate 320 g/ha)","Stellaria media, herbicidal activity (Stellaria media [8]; application rate 1280 g/ha)","Poa Annua, herbicidal activity (Poa annua [9]; application rate 1280 g/ha)","Abutilon theophrasti, herbicidal activity (Abutilon theophrasti [11])","Stellaria media, herbicidal activity (Stellaria media [3]; application rate 320 g/ha)","Poa Annua, herbicidal activity (Poa annua [4]; application rate 1280 g/ha)","Amaranthus retroflexus, herbicidal activity (Amaranthus retroflexus [12]; application rate 320 g/ha)","Abutilon theophrasti, herbicidal activity (Abutilon theophrasti [6]; application rate 1280 g/ha)","Amaranthus retroflexus, herbicidal activity (Amaranthus retroflexus [10]; application rate 1280 g/ha)","Setaria viridis, herbicidal activity (Setaria viridis [1]; application rate 1280 g/ha)","Matricaria inodora, herbicidal activity (Matricaria inodora [7]; application rate 320 g/ha)","Stellaria media, herbicidal activity (Stellaria media [8]; application rate 320 g/ha)","Echinochloa crus-galli, herbicidal activity (Echinochloa crus-galli [13])",other results
"CCC(=O)OC1C(C)=CC(=O)N1c1cc(C(F)(F)F)c(Cl)cn1 (centres unmarked) [I.5-451, 5-Ethylcarbonyloxy-4-methyl-1-(5-chloro-4-trifluoromethylpyridin-2-yl)-1,5-dihydro-2H-pyrrol-2-one]",–,100%,90%,90%,100%,100%,90%,100%,100%,100%,–,–,–,–,–,–,–,–,–,–,"Matricaria inodora, herbicidal activity (Matricaria inodora [7]; application rate 1280 g/ha): 90%"
CC1=CC(=O)N(c2onc(C(C)(C)C)c2C)C1O (centres unmarked) [I.1-300],+++ (90%>inhibition≥70%),–,–,90%,–,90%,–,100%,–,–,100%,100%,–,100%,–,90%,100%,100%,100%,100%,"Matricaria inodora, herbicidal activity (Matricaria inodora [2]; application rate 320 g/ha): 100%; Echinochloa crus-galli, herbicidal activity (Echinochloa crus-galli [14]; application rate 320 g/ha): 100%; Setaria viridis, herbicidal activity (Setaria viridis [5]; application rate 320 g/ha): 100%; Poa Annua, herbicidal activity (Poa annua [9]; application rate 320 g/ha): 100%"
CC1=CC(=O)N(c2noc(C(C)(C)C)c2C)C1O (centres unmarked) [I.1-177],++++ (inhibition≥90%),100%,100%,–,100%,–,100%,–,–,100%,100%,–,100%,–,100%,90%,–,100%,100%,100%,"Lolium rigidum, herbicidal activity (Lolium rigidum; application rate 320 g/ha): 90%; Echinochloa crus-galli, herbicidal activity (Echinochloa crus-galli [14]; application rate 1280 g/ha): 100%; Amaranthus retroflexus, herbicidal activity (Amaranthus retroflexus [12]; application rate 1280 g/ha): 100%"
